Reference: PMC7595212, “Functional interaction between Ghrelin and GLP-1 regulates feeding through the vagal afferent system” (Scientific Reports, 2020)

Experiments:
mice = assay: Feeding experiments in mice (1-h food intake); type: in vivo, mouse; settings: for food intake, GLP-1 preadministration before ghrelin: GLP-1 3 nmol i.p. 30 min before ghrelin 1.5 nmol i.p., n = 8
[1] = Pharmacokinetics analysis: plasma profiles of ghrelin and GLP-1 in rats; settings: i.v. into femoral vein, peptide administered first (GLP-1 3 nmol, ghrelin 1.5 nmol), GLP-1 by active ELISA, ghrelin by enzyme immunoassay
Protocol: Blood was withdrawn from the right jugular vein at: 1, 2.5, 5, 10, 20, 30, 32.5, 35, 40, 50, and 60 min after the first injection. Blood was collected into tubes containing 1.25 mg EDTA and aprotinin (500 kallikrein-inhibiting units/ml blood) (Wako Pure Chemical Industries), and all samples were centrifuged within 2 h of collection. […] For ghrelin assay, 1 M HCl (100 µl/ml) was added to the plasma. All samples were stored at − 70 °C until analysis.

rats = assay: Feeding experiments in rats (1-h food intake); type: in vivo, rat; settings: GLP-1 3 nmol i.v.
Protocol: First, rats fasted for 8 h (02:00–10:00) received an i.v. injection of human GLP-1 (3 nmol/100 µl saline, CS Bio) or saline at 10:00, then they were administered human ghrelin (1.5 nmol/100 µl saline, Peptide Institute) or saline injection at 10:30. Food intake was determined from 10:30 to 11:30. Secondly, rats fed ad libitum received an i.v. ghrelin (1.5 nmol/100 µl) or saline injection at 10:00 or 19:30, then they were administered GLP-1 (3 nmol/100 µl) or saline injection at 10:30 or 20:00. Food intake was measured from 10:30 to 11:30 or 20:00 to 21:00. Thirdly, mice fasted for 8 h (02:00–10:00) received an i.p. injection of ghrelin (1.5 nmol/100 µl saline) or saline at 10:00, then they were administered human GLP-1 (3 nmol/100 µl saline) or saline at 10:30 and 1 h food intake (10:30–11:30) was measured. Fourthly, Ghsr^−/− and their wild-type mice fasted for 12 h (22:00–10:00) were administered ghrelin (1.5 nmol/50 µl saline, i.p.) at 10:00, then they were administered GLP-1 (3 nmol/50 µl saline, i.p.) or saline injection at 10:30, and food intake was measured from 10:30 to 11:30. Finally, Glp1r ^−/− and their wild-type mice were administered GLP-1 (3 nmol/50 µl, i.p.) or saline at 10:00, subsequently given a ghrelin (1.5 nmol/50 µl, i.p.) or saline injection at 10:30, food intake was measured from 10:30 to 11:30. […]

NG neurons [2] = assay: Whole-cell voltage-clamp (patch-clamp) of NG neurons; type: cell-based, mouse; settings: whole-cell voltage clamp -80 to 40 mV, 10 nM peptide, Ghsr- and Glp1r-expressing NG neurons, n = 10
Protocol: NG neurons were perfused in the bath solution (Composition in mmol L^−1: NaCl 126.2, KCl 3.1, MgCl2 2, CaCl2 2, HEPES 10, glucose 10; pH 7.39, osmolarity 320 mOsm) with 10 nM ghrelin or 10 nM GLP-1. Whole-cell recordings were performed using patch pipettes of 3.5–5 MΩ resistance backfilled with a solution (Composition in mmol L^−1: K gluconate 125, KCl 8, MgCl2 4, HEPES 10, ATP 2, GTP 0.4, Na2-creatine phosphate 5; pH 7.23, osmolarity 300 mOsm). After obtaining a giga-seal, membrane access resistance was monitored for 5–10 min until it became stable at 10 MΩ or less. Data were acquired from isolated vagal sensory neurons of mice in Axopatch 1D amplifier (Molecular Devices) filtered at 1 kHz. Signals were digitised in analogue-to-digital converter (Axon Digidata 1322A; Molecular Devices), and analysed on a computer running pCLAMP 10 software (Molecular Devices).
All neurons collected in retrograde tracing studies and used to assess calcium response and patch-clamp recording were picked up by the UnipicK + system (NeuroInDx) immediately after each measurement. […] In the retrograde tracer studies, percentage of stomach-innervating NG neurons expressing Ghsr or Glp1r were analysed. […]

NG neurons [3] = assay: Calcium response in single neurons isolated from NG (Fura-2); type: cell-based, mouse
Protocol: Bilateral NGs resected from mice were immersed in hibernateA media (BrainBits). Each ganglion was cut into five pieces, placed in HibernateA minus Ca^2+ media (BrainBits) containing 1 mg/ml collagenase/dispase (Roche Diagnostics) and incubated for 90 min at 37 °C. Neurons were dispersed by gentle titration through pipettes and they were washed three times with fresh NbActive4 media (BrainBits) and plated onto poly-D-lysine/laminin (BD Bioscience)-coated coverslips, followed by incubation (5% CO2 in air at 37 °C) for 24 h. Cultures were rinsed in 10 mM phosphate buffered saline (PBS) and fixed with 4% paraformaldehyde (PFA) in phosphate buffer (PB). Ganglion neurons were incubated with the first primary antibodies; anti-GLP-1R or anti-GHSR at 4 °C overnight, and then with the second primary antibodies; anti-GHSR or anti-Pan Neuronal Marker (Supplementary Table S1) at 4 °C overnight. They were then reacted with corresponding Alexa Fluor 488- or 594-conjugated secondary IgG (Supplementary Table S1) at RT for 1 h. Neurons were observed under a fluorescence microscope (Olympus).
Ca^2+ imaging was performed under continuous perfusion of NG neurons with Krebs–Ringer-Henseleit buffer (Composition in mmol L^−1: NaCl 119, KCl 4.74, CaCl2 2.54, MgCl2 1.19, KH2PO4 1.19, NaHCO3 25, HEPES 10, pH 7.4) at a flow rate of 600 μl/min at 37 °C. NG neurons were loaded with 1 µM Fura-2 acetoxymethyl ester (Dojindo Labs) in NbActive4 media at 37 °C for 30 min. For Ca^2+ measurements in an integrated fluorescence microscope (Keyence BZ-X700), images were captured at 10-s intervals; 340- and 380-nm excitation filters were used for Fura-2-AM dual-wavelength excitation ratio imaging. NG neurons were stimulated with 10 nM either ghrelin or GLP-1, and 10 min later stimulated with the other peptide. At the end of experiments, cells were exposed to 100 mM KCl (Nacalai Tesque) for 2 min. […] All data were expressed as percent changes from the average of the 340/380 fluorescence ratio in response to ghrelin or GLP-1.
All neurons collected in retrograde tracing studies and used to assess calcium response and patch-clamp recording were picked up by the UnipicK + system (NeuroInDx) immediately after each measurement. RNA was isolated from single neurons with PicoPure RNA Isolation Kit (Applied Biosystems). qRT-PCR (primer sets, Supplementary Table S2) was conducted with SYBR Premix Ex Taq (2 ×) (Takara Bio Inc.) on a Thermal Cycler Dice Real-Time System II (Takara Bio Inc.). In the retrograde tracer studies, percentage of stomach-innervating NG neurons expressing Ghsr or Glp1r were analysed. In the patch-clamp recording, only Ghsr^+ Glp1r^+ neuron cells were used for the final analysis.

gastric vagal afferent = assay: Multi-unit nerve discharge of the gastric vagal afferent; type: in vivo, rat; settings: anaesthetised rats, i.v., n = 3
Protocol: Multi-unit neural discharge in gastric vagal afferent fibres was recorded extracellularly. Rats were anesthetised by an i.p. injection of urethane (1 g/kg) (Sigma-Aldrich). The electrophysiological study was performed entirely under anaesthetisation as described previously. After the gastric branch of the vagal nerve was visualised, we placed filaments isolated from the peripheral cut end of the ventral branch for the recording of afferent nerve activity via a pair of silver wire electrodes connected through an alternating current-coupled differential amplifier (ER-1; Cygnus Technology) to PowerLab (AD Instruments). The nerve activities were recorded and analysed using LabChart v8 software (AD Instruments). […] After the first administration, nerve discharges from the multi-unit afferents were analysed for 60 min.

[4] = system: Fos expression in NG, NTS and ARC neurons; assay: Fos immunohistochemical staining (NG, NTS, ARC); type: in vivo, mouse; settings: mice
Protocol: The NG and brain were removed, fixed overnight in a fixative solution containing 4% PFA, cryoprotected in 0.1 M PB containing 20% sucrose and embedded in Tissue-Tek O.C.T. compound. The 10 µm sections were mounted on slides permeabilized with 0.3% triton X-100 in PBS (PBS-T). After permeabilization, antigens were retrieved by heating the sections in an autoclave for 1 h at 70 °C with a Histo VT one (Nakalai Teaque, Kyoto, Japan). All sections were blocked with 5% goat-serum in PBS-T. Three specimens each of NG, NTS and ARC were incubated for 48 h at 4 °C with c-Fos antiserum (Supplementary Table S1), then incubated for 1 h with Alexa Fluor 488- (NTS and ARC) or 594- (NG) conjugated anti-rabbit IgG at room temperature (Supplementary Table S1). To stain nuclei of the neurons, the specimens from NG were incubated with Alexa Fluor 488-conjugated Anti-NeuN IgG (Supplementary Table S1) at RT for 1 h, and the specimens from NTS and ARC were incubated overnight with Alexa Fluor 555-conjugated anti-NeuN IgG (Supplementary Table S1) at 4 °C. Images of immunofluorescence staining were observed using a Nikon C2 + confocal laser scanning microscope (Nikon, Tokyo, Japan). Fos-positive neurons in three specimens from each animal were counted using ImageJ.

CC[C@H](C)[C@H](NC(=O)[C@H](Cc1ccccc1)NC(=O)[C@H](CCC(=O)O)NC(=O)[C@H](CCCCN)NC(=O)[C@H](C)NC(=O)[C@H](C)NC(=O)[C@H](CCC(N)=O)NC(=O)CNC(=O)[C@H](CCC(=O)O)NC(=O)[C@H](CC(C)C)NC(=O)[C@H](Cc1ccc(O)cc1)NC(=O)[C@H](CO)NC(=O)[C@H](CO)NC(=O)[C@@H](NC(=O)[C@H](CC(=O)O)NC(=O)[C@H](CO)NC(=O)[C@@H](NC(=O)[C@H](Cc1ccccc1)NC(=O)[C@@H](NC(=O)CNC(=O)[C@H](CCC(=O)O)NC(=O)[C@H](C)NC(=O)[C@@H](N)Cc1c[nH]cn1)[C@@H](C)O)[C@@H](C)O)C(C)C)C(=O)N[C@@H](C)C(=O)N[C@@H](Cc1c[nH]c2ccccc12)C(=O)N[C@@H](CC(C)C)C(=O)N[C@H](C(=O)N[C@@H](CCCCN)C(=O)NCC(=O)N[C@@H](CCCNC(=N)N)C(N)=O)C(C)C [GLP-1, glucagon-like peptide 1]
food intake, GLP-1 preadministration before ghrelin (mice; Glp1r-/- mice fed ad libitum): did not affect ghrelin-induced feeding
feeding effect of the peptide administered second (mice; mice, two peptides in a 60-min interval, peptide given 60 min after the first peptide): exhibited its proper effect
food intake, GLP-1 preadministration before ghrelin (mice; wild-type mice (of Glp1r-/-) fed ad libitum): abolished ghrelin-induced feeding
time at which plasma concentration returned to the base [1]: 30 min
food intake (rats; 8-h fasted rats, compared with saline, n = 8): significantly reduced food intake
food intake (rats; rats fed ad libitum, dark phase (20:00-21:00), n = 6): suppressed feeding
current in I/V relationship (NG neurons [2]): generated depolarizing current
calcium response, GLP-1 after ghrelin (NG neurons [3]; Glp1r+Ghsr+ neurons, 10 nM GLP-1 10 min after 10 nM ghrelin, n = 10): failed to evoke calcium response
calcium response (NG neurons [3]; Glp1r+Ghsr+ neurons, 10 nM GLP-1 given first, n = 10): evoked calcium response
calcium response (NG neurons [3]; Glp1r+Ghsr- neurons, 10 nM GLP-1): evoked calcium response
calcium response (NG neurons [3]; Glp1r-Ghsr- neurons, 10 nM GLP-1): not
gastric vagal afferent activity (gastric vagal afferent; ghrelin 1.5 nmol or GLP-1 1 nmol, peptide given first): enhanced it
gastric vagal afferent activity, second peptide (gastric vagal afferent; peptide given 30 min after the other peptide (ghrelin 1.5 nmol, GLP-1 1 nmol)): GLP-1-enhanced activity was not observed
ghrelin-induced Fos in the ARC after GLP-1 preadministration ([4]; GLP-1 3 nmol i.p. 30 min before ghrelin 1.5 nmol i.p., n = 4): abolished ghrelin-induced Fos in the ARC
Fos-positive neurons in left NG ([4]; GLP-1 3 nmol i.p. alone, n = 3): 70.5%
Fos-positive neurons in right NG ([4]; GLP-1 3 nmol i.p. alone, n = 3): 71.0%
Fos in the NTS ([4]; GLP-1 3 nmol i.p. alone, n = 4): induced Fos in the NTS
